{
  "source": "paper PMC8876231",
  "about": "“Analogues of Natural Chalcones as Efficient Inhibitors of AKR1C3” (Metabolites, 2022)",
  "key": {"AKR1C3 [1]": {"molecular_target": "T1, AKR1C3 (Homo sapiens, UniProt P42330)", "T1 construct": "GST (own knowledge: pGEX vectors encode N-terminal GST); made in house; host or cells: E. coli BL21 DE3 Codon Plus RP, lysate", "T1 sequence (P42330 1-323)": "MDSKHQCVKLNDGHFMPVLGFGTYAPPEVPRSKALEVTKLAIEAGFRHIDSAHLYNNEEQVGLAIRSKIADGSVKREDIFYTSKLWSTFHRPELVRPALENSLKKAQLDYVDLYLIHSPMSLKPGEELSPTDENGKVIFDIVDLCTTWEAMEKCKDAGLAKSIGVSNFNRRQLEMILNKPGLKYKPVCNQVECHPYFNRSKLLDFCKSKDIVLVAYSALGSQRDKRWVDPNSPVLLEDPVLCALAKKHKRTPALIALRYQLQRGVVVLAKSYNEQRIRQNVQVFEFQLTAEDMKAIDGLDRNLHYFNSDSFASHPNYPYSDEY", "assay": "AKR1C3 enzymatic inhibition assay (∆4-androstene-3,17-dione to testosterone)", "format": "biochemical", "settings": "10 µM compound, ∆4-androstene-3,17-dione reduction, triplicates, mean ± SD", "description": "For enzymatic assays and inhibitor testing, all enzymes were cloned into bacterial or mammalian expression vectors. AKR1C3 and the human hydroxysteroid dehydrogenases HSD17B1, HSD17B2, HSD17B4 (SDR domain), HSD17B7, and HSD17B10 were cloned into a pGEX vector as described in [71, 72]. The coding sequences for AKR1C1, AKR1C2, and AKR1C4 were cloned by Gateway technology into the pcDNA3-N-MycDest vector according to the manufacturer’s instructions (Life Technologies, Carlsbad, CA, USA). The p11 plasmid coding for HSD17B14 (S205 variant) was a gift from Udo Opperman SGC Oxford, UK. For assays with HSD17B3, HEK293 cells stably expressing HSD17B3 were used. Enzymes were expressed in E. coli BL21 DE3 or E. coli BL21 DE3 Codon Plus RP (Stratagene, San Diego, CA, USA) or in HEK293 cells as described in [71, 72, 73]. Bacterial and cell pellets were stored at −20 °C and −80 °C, respectively, until use.\nInhibition assays were carried out as described in [71, 74]. […] For a detailed assay setup, see Supplementary Table S6. The incubation at 37 °C was stopped with 0.21 M ascorbic acid in methanol:acetic acid 99:1 (v:v) after the time needed to convert approximately 30% of the substrate in a control assay with 1% DMSO, without inhibitor candidate. Substrates and products were extracted from the reaction mixture by solid-phase extraction using C18 cartridges (Phenomenex, Aschaffenburg, Germany) and separated by RP–HPLC in a Beckman–Coulter HPLC Gold system, using the Luna 5 µm C18(2), 125 × 4.0 mm column (Phenomenex). The mobile phases used were H2O:ACN (57:43 (v:v); for assays of estrone (E1) to oestradiol (E2), E2 to E1, and ∆4-androstene-3,17-dione to testosterone conversion), H2O:ACN (49:51 (v:v); for assays of progesterone to 20α-hydroxyprogesterone conversion), and H2O:MeOH (35:65 (v:v) for assays of dihydrotestosterone (DHT) to 3α-androstanediol conversion) at a flow rate of 1 mL/min. Radioactivity was detected by online scintillation counting by using a radioactivity monitor (LB506D, Berthold Technologies, Bad Wildbad, Germany). Conversion of substrates to products was determined by integration of the peak area of the substrate and product peaks in percent. For calculation of inhibition, the conversion of control assay (assay without inhibitor) was set to 0% inhibition. All assays were run in triplicates, and mean values ± SD are reported.\nFor the determination of IC50 values, percent inhibition values were fitted using the Enzyme Kinetics module of SigmaPlot 13.0 and the one-site ligand-binding model according to the formula f = Bmax * abs(x)/(Kd + abs(x)).\nTable S6: Activity assay setup […]\nE1: estrone; E2: 17β-estradiol, A: Δ4-androstene-3,17-dione; T: testosterone, P: progesterone, 20αOHP: 20α-hydroxyprogesterone, DHT: dihydrotestosterone, 3α-Adiol: 3α-androstanediol, NaPi: 100 mM Na-phosphate buffer; PI: C0mplete protease inhibitor (Roche);. E.coli - Expression in E.coli BL21 DE3 Codon Plus RP except E.coli BL21 DE3 […]\napplication to antiparasitic and natural product synthesis. Eur J Org Chem […]\nSynthesis of Xanthohumol analogues and discovery of potent thioredoxin reductase inhibitor as potential anticancer agent. J Med Chem 2015, 58,"}, "AKR1C3 [2]": {"system": "AKR1C3", "settings": "co-crystallised ligand of PDB 3UWE; cited from earlier work"}, "DU145": {"system": "DU145", "parameters": "method as in PMID 12706007", "settings": "human prostate cancer cell line DU145; read-out: IC50 growth inhibition DU145; cited from earlier work"}, "LNCaP": {"system": "LNCaP", "parameters": "method as in PMID 12706007", "settings": "human prostate cancer cell line LNCaP; read-out: IC50 growth inhibition LNCaP; cited from earlier work"}, "17β-HSD": {"system": "17β-HSD", "parameters": "method as in PMID 11205867", "settings": "human placental microsomes, compound concentration 10 µM; cited from earlier work"}, "aromatase": {"molecular_target": "aromatase", "parameters": "method as in PMID 11205867", "settings": "human placental microsomes; cited from earlier work"}},
  "note": "Several values for one entry are separate records, joined by “and”; a condition that tells them apart may be missing. Equal entries are not always repeated.",
  "data": [
    {"smiles": "COc1cc(O)cc(O)c1C(=O)/C=C/c1ccc(F)cc1", "note": "[Compound 27]", "values": [
      {"measurement": "AKR1C3 Inhibition at 10 µM [%]", "setting": "AKR1C3 [1]; 10 µM", "result": "26.1% and 20.3 ± 8.4%"}
    ]},
    {"smiles": "COc1cc(O)cc(O)c1C(=O)/C=C/c1ccc(Cl)cc1", "note": "[Compound 28]", "values": [
      {"measurement": "AKR1C3 Inhibition at 10 µM [%]", "setting": "AKR1C3 [1]; 10 µM", "result": "20.3% and 26.1 ± 2.0%"}
    ]},
    {"smiles": "COc1cc(O)cc(O)c1C(=O)/C=C/c1ccc(O)cc1", "note": "[Compound 24]", "values": [
      {"measurement": "AKR1C3 Inhibition at 10 µM [%]", "setting": "AKR1C3 [1]", "result": "24.6 ± 4.8", "unit": "%"}
    ]},
    {"smiles": "O=C(/C=C/c1ccc(O)c(O)c1)c1ccc(O)cc1O", "note": "[Butein (17), butein, reference compound]", "values": [
      {"measurement": "inhibition at 10 µM", "setting": "AKR1C3 [1]", "result": "37.2 ± 1.4", "unit": "%"}
    ]},
    {"smiles": "O=C(O)c1cccc(Oc2ccccc2)c1", "note": "[3-phenoxybenzoic acid]", "values": [
      {"measurement": "IC50", "setting": "AKR1C3 [2]", "result": 0.68, "unit": "µM"}
    ]},
    {"smiles": "O=C(/C=C/c1ccc(O)cc1)c1ccc(O)cc1O", "note": "[Isoliquiritigenin (16), isoliquiritigenin, reference compound]", "values": [
      {"measurement": "inhibition at 10 µM", "setting": "AKR1C3 [1]", "result": "31.1 ± 3.2", "unit": "%"},
      {"measurement": "IC50", "setting": "DU145", "result": 11, "unit": "µM"},
      {"measurement": "IC50", "setting": "LNCaP", "result": 13, "unit": "µM"},
      {"measurement": "17β-HSD inhibition", "setting": "17β-HSD", "result": 10, "unit": "%"}
    ]},
    {"smiles": "O=C(/C=C/c1ccc(F)cc1)c1c(O)cc(O)cc1O", "note": "[Compound 26]", "values": [
      {"measurement": "AKR1C3 Inhibition at 10 µM [%]", "setting": "AKR1C3 [1]", "result": "68.5 ± 6.4", "unit": "%"}
    ]},
    {"smiles": "O=C(/C=C/c1ccc(O)cc1)c1c(O)cc(O)cc1O", "note": "[Compound 29, naringenin chalcone]", "values": [
      {"measurement": "AKR1C3 Inhibition at 10 µM [%]", "setting": "AKR1C3 [1]", "result": "40.6 ± 7.7", "unit": "%"},
      {"measurement": "IC50", "setting": "aromatase", "result": 2.6, "unit": "µM"},
      {"measurement": "17β-HSD inhibition", "setting": "17β-HSD", "result": 2.4, "unit": "%"}
    ]},
    {"smiles": "O=C(/C=C/c1ccc(Cl)cc1)c1c(O)cc(O)cc1O", "note": "[Compound 22]", "values": [
      {"measurement": "AKR1C3 Inhibition at 10 µM [%]", "setting": "AKR1C3 [1]", "result": "70.8 ± 3.8", "unit": "%"}
    ]}
  ]
}
